Measurements taken from the METLIN SMRT retention time set (Domingo-Almenara et al. 2019).

Assay: gradient 5% acetonitrile 3 min, to 50% in 2 min, to 85% in 15 min, held 3 min, 100 µL/min
Details: column: Zorbax Extend-C18 2.1 x 50 mm; eluents: water / acetonitrile, 0.1% formic acid
Outline: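 Pure standards were run in mixtures of ~100 molecules by HPLC coupled to a quadrupole time-of-flight mass spectrometer. The column was a Zorbax Extend-C18 (2.1 × 50 mm, 1.8 μm) at 100 μL/min, with water and acetonitrile each containing 0.1% formic acid, in positive and negative ionization mode. Dead and dwell volumes were 40 μL and 900 μL. Retention time was taken from computationally picked adduct peaks, each manually inspected, with data collected over 3 months.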

Structure (SMILES)	RP-LC retention time [s]
c1cc(-c2noc(C3CCCC3)n2)cc(N2CCOCC2)n1	872
Cc1nnc(N2CCCC(C(=O)N3CCN(c4ccccc4)CC3)C2)c2nn(-c3ccccc3)c(C)c12 (stereo unspecified)	759
Cc1cc(Nc2ccccc2)nc(N2CCN(C(=O)Nc3ccc(Cl)cc3)CC2)n1	761
c1ccc(-c2cccc(-c3ccccn3)n2)nc1	608
CCc1nc2cc(N3CCC(C(=O)NC(C)c4ccc(OC)cc4)CC3)cnc2nc1CC (stereo unspecified)	868
O=C(Nc1ccccc1[N+](=O)[O-])C(=O)N1CCN(Cc2ccc3c(c2)OCO3)CC1	592
Cc1ccc(F)c(NS(=O)(=O)c2cc(-c3[nH]ncc3C(=O)N3CCCC3)oc2C)c1	710
COc1ccc(C2(C(=O)N3CCN(S(=O)(=O)c4c(C)nn(C(C)C)c4C)CC3)CC2)cc1	889
CN(C)S(=O)(=O)c1ccc2c(c1)N(CC(=O)N1CCc3ccccc31)C(=O)C1CCCCN21 (stereo unspecified)	960
CCCCN(C)C(=O)CN1C(=O)C2CCCCN2c2ccc(S(=O)(=O)N(CC)CC)cc21 (stereo unspecified)	1010
CC(C)c1ccc2c(c1)-c1ccccc1S(=O)(=O)N2CC(=O)NCCN1CCOCC1	692
CC(C)C(=O)Nc1ccc(-n2cnc(C(=O)N3CCSCC3)c2)nc1	679
Cc1oc(C2CCN(S(=O)(=O)c3ccc(F)c(F)c3)CC2)nc1C(=O)N1CCCC1	936
O=C(O)CCC1CCCN(S(=O)(=O)c2ccc(F)cc2)C1 (stereo unspecified)	782
COC(=O)C1=CN(CC(=O)N2CCN(c3ccccc3F)CC2)S(=O)(=O)N=C1C	908
CC(NC(=O)C1CCN(C(=O)c2ncn3c2COC(c2ccccc2)C3)CC1)c1ccccc1 (stereo unspecified)	754
CCCCNC(=O)C1CCCN(c2cc(=O)n(C)c(=O)n2C)C1 (stereo unspecified)	641
CCN(CC)CCN1c2ccccc2Sc2ccc3ccccc3c21	893
Cc1cc(Cl)ccc1NC(=O)C1CCCN(c2ncnc3c2nc2n3CCCCC2)C1 (stereo unspecified)	879
COCCC1CCN(C(=O)CC2CCN(C(C)=O)CC2)CC1	626
Cc1cc(C)c2c(N3CCOCC3)nc(C(=O)N3CCN(c4ccccc4)CC3)nc2n1	653
Cn1c(=O)sc2cc(S(=O)(=O)N3CCC(C(=O)NCCc4ccccc4)CC3)ccc21	830
CCOc1ccc(NC(=O)C2CCCN(c3ncnc4c3nc3n4CCCCC3)C2)cc1 (stereo unspecified)	732
CCOc1ccccc1N1CCN(S(=O)(=O)c2nn(CC)cc2C(=O)NCCC(C)C)CC1	1130
CN1C(=O)C(CC(=O)NC2CCCCC2)Sc2ncccc21 (stereo unspecified)	703

Structure (SMILES)	RP-LC retention time [s]
CC(C)Oc1cc2oc(=O)cc(-c3ccccc3)c2cc1CCC(=O)N1CCN(c2ccccn2)CC1	647
Cn1cc(-c2nc(C(=O)N3CCN(c4ccccc4Cl)CC3)cs2)c2cccnc21	1070
Cn1c(=O)n(Cc2ccccc2)c(=O)c2c1nc(N1CCNCC1)n2Cc1ccccc1	672
CC(Cc1ccco1)NC(=O)c1cc(S(=O)(=O)N2CCCCCC2)ccc1Cl (stereo unspecified)	1010
CC(C)(C)NS(=O)(=O)c1cncc(-c2cc(F)c3nc(N)nn3c2)c1	750
CC(C)c1nc2c(NC(=O)c3ccsc3)cccn2n1	866
Cc1ccc(CNC(=O)N2CCCC(C)(C(=O)NCc3ccc(F)cc3)C2)cc1 (stereo unspecified)	890
COc1ccc(N2C(=O)CCC(C(=O)N3CCOCC3)C2c2ccc(OC)c(OC)c2)cc1 (stereo unspecified)	619
NC(=O)c1ccc(OCC(O)CN2CC=C(c3ccc(F)cc3)CC2)cc1 (stereo unspecified)	512
O=C(NC1CCN(c2cc(N3CCOCC3)cnn2)C1)c1ccc(Cl)s1 (stereo unspecified)	610
COc1ccc(Nc2ccc3c(=O)c(-c4ccccc4OC)coc3c2)c(OC)c1	940
CC1(C)Cc2cccc(OCc3ccc(C(=O)NCCN4CCOCC4)cc3)c2O1	586
CCc1nc(-c2csc(S(=O)(=O)N3CCCC(C(=O)NC(C)C)C3)c2)no1 (stereo unspecified)	865
CCOC(=O)c1c(S(=O)(=O)N2CCC(C(=O)Nc3ccc(OC)cc3)CC2)c(C)n(CC)c1C	857
CC(CC(=O)O)CC(=O)Nc1nc(-c2ccccc2)c(-c2ccccc2)s1 (stereo unspecified)	927
CC(C)N1CCN(Cc2ccc(C(=O)N3CCN(C4CCCCC4)CC3)cc2)C(=O)C1=O	839
COc1cccc(CC(=O)NCC(=O)Nc2nc3ccccc3n2C)c1	645
O=C(Cn1cnc2nc(N3CCCC(C(=O)NC4CC4)C3)sc2c1=O)NC1CCCC1 (stereo unspecified)	628
Cc1ccc(C(=O)N2CCC(C(=O)N3CCCCCCNC(=O)CC3)CC2)s1	668
CCOc1ccc2ncc(C(=O)c3ccc(OC)cc3)c(N3CCN(C)CC3)c2c1	599
CN1CCN(c2nc(C(=O)NC3CCN(c4ccc(=O)n(C)n4)CC3)cs2)CC1	566
C[C@H](NC(=O)[C@@H]1CCCN1C(=O)[C@@H]1CCCN1C(=O)[C@@H](O)[C@H](N)Cc1ccccc1)C(N)=O	552
O=C(NCCN1CCCCC1)c1ccc(-c2ccc(N3CCSCC3)nc2)cc1	591
Cc1ccccc1Oc1nccnc1N1CCC(C(=O)NCCC2=CCCCC2)CC1	1110
COc1ccc(OC)c(CNC(=O)C2CCCN(c3nccnc3Oc3ccccc3)C2)c1 (stereo unspecified)	957

Continued, values first:

RP-LC retention time [s]	Structure (SMILES)
832	CN(C)C(=O)COc1cc(O)c2c(=O)cc(-c3ccccc3)oc2c1
910	CCn1c(=O)c2cc(C(=O)NCCc3ccc(OC)c(OC)c3)nn2c2ccccc21
800	CCc1cccc(NC(=O)Cn2ccc3sccc3c2=O)c1
827	COc1ccc(C(=O)n2c(SC)nc3ccccc32)cc1OC
941	Cc1nn2c(CNS(=O)(=O)c3cc(C)c(C)cc3C)c(-c3ccccc3)nc2s1
760	O=C1NC2(CCN(C(=O)c3cc(F)cc(F)c3)CC2)Nc2c(Cl)cccc21
968	CCOc1ccc(-c2noc(CN3C(=O)COc4ccccc43)n2)cc1OC
960	CCOC(=O)c1nc(N2CCN(c3cccc(OC)c3)CC2)c2c(C)noc2n1
1100	COc1ccccc1-c1noc(Cn2ncn3nc(-c4cc(C)ccc4C)cc3c2=O)n1
785	CSc1ccc(-c2nc3nc(C)cc(C)n3c2Nc2ccccc2C)cc1
564	Cc1cc(C)n(-c2ccc(C(=O)NCc3nc4ccccc4[nH]3)nn2)n1
898	COc1cccc(CNC(=O)C2=C3CCCN3c3ccc(Cl)cc3S2(=O)=O)c1
669	Cn1nc(C2CCN(C(=O)c3ccc4ccccc4n3)CC2)c2c1CCOC2
760	CCOC(=O)C(CC)Oc1cc(O)c2c(=O)cc(-c3ccccc3)oc2c1 (stereo unspecified)
894	O=C(c1ccc(F)c(Cl)c1)N1CCN(c2cc(-c3ccc(F)cc3)[nH]n2)CC1
756	Cc1ccc2nc(-c3ccc(Cl)cc3)c(Nc3ccc4c(c3)OCO4)n2c1
996	CCOc1ccc(-c2csc(C)n2)cc1S(=O)(=O)NCc1ccccc1
800	CN1c2cc(F)ccc2C(=O)NC12CCN(C(=O)c1cccc(Cl)c1)CC2

RP-LC retention time [s]	Structure (SMILES)
1270	Cc1ccc(S(=O)(=O)N2CCCC2c2nc(-c3cccc(Cl)c3)no2)cc1C (stereo unspecified)
1000	COc1cc(F)ccc1-c1ccnc2nc(C3CCCCC3)nn12
946	CC(C)CN1C(=O)CCc2cc(NS(=O)(=O)c3ccc(Cl)cc3)ccc21
1070	Cc1ccc(-n2ccnc(NC(=O)Nc3cccc(F)c3)c2=O)cc1C
1170	CCN1C(=O)COc2ccc(-c3noc(-c4cccc(F)c4)n3)cc21
695	Cc1ccc(C(=O)NCCc2nc3cccnc3n2C(C)C)cc1C
1080	CC(C)n1c(=O)c2ccccc2n(Cc2nc(-c3ccc4c(c3)OCO4)no2)c1=O
1140	Cc1cc(C)cc(-n2ccnc(NC(=O)Nc3ccc(C)c(F)c3)c2=O)c1
773	CC(C)N1C(=O)c2cccnc2Sc2cc(NC(=O)c3ccoc3)ccc21
1060	COc1cc(NC(=O)Cn2c(C)nc3c(sc4nc(-c5ccccc5)ccc43)c2=O)cc(OC)c1
748	COc1ccc(CC(=O)Nc2ccc3c(c2)Sc2ncccc2C(=O)N3C)cc1
1070	COc1cccc(CN2CC(=O)N(Cc3cccc(F)c3)c3ccccc3S2(=O)=O)c1
914	Cc1oc2ccn(C)c(=O)c2c1C(=O)NCc1ccccc1Br
838	O=C1/C(=C/c2cccnc2)Oc2cc(OCc3ccc([N+](=O)[O-])cc3)ccc21
889	Cc1cc(Cl)ccc1OCc1nc(-c2ccc3c(c2)ncn3CCC(=O)N2CCCC2)no1
867	O=C(Nc1ccnn1Cc1ccccc1)c1cc(=O)c2cc(Cl)ccc2o1
747	CNC(=O)c1cccc2c1CCN2C(=O)Nc1ccc(C)cc1
544	Cc1cnc(C2CN(Cc3ccc(F)cc3F)C2)n1Cc1cccnc1
